From a melting point compilation (Tetko et al.; mined from patent text by program, amines drawn as free bases though some values may be those of a salt) come the findings set out here.

A value given as a limit tells only on which side of the number the result lay.

As to `COc1ccc(OC)c(S(=O)(=O)NC(=O)C(C)Br)c1` (configuration not stated), the melting point fell in the range of 116 to 118 °C.

Compound `COc1cc2c(cc1C=O)OCC2` showed a melting point of 82 to 84 °C.

Take `COC(=O)[C@H](Cc1cc(C)c(OCc2cccc3nc(-c4ccccc4)oc23)c(C)c1)NC(=O)OC(C)(C)C`: the melting point was in the range of 116 to 117 °C.

Compound `OC1CSC(Oc2cc(-c3ccc(F)nc3)ccc2Cl)C(O)C1O` (configuration not stated) displayed a melting point of 185 °C.

With `Cc1nc(Cl)c([N+](=O)[O-])c(Cl)n1`, the melting point was 42 to 44 °C.

Consider `COc1cc2c(cc1OC)CN(c1cc(N)c3cc(OC)c(OC)cc3n1)CC2`, for which the melting point lay in the range of 226 to 227 °C.

Consider `CCCC(=O)Nc1ccn(C2OC(CO)C(O)C2O)c(=O)n1` (configuration not stated), for which the melting point lay in the range of 108 to 110 °C.

Turning to `COc1ccc([C@@H]2Cc3c(Cl)cccc3NC(=O)[C@@H]2O)cc1`, the melting point fell in the range of 191 to 193 °C.

The compound `CC(=O)OC1CCC2(C)C(CCC3C2C(=O)CC2(C)C3CCC23OCCO3)C1` (configuration not stated) registered a melting point of 116 to 123 °C.

`CC(C(=O)O)N(O)C(C)(C)C` (configuration not stated) yielded a melting point of 73 to 74 °C.

The compound `O=C(O)Cc1ccc2c(c1)C(=O)c1ccc(Cl)cc1CS2` yielded a melting point of 245 to 247 °C.

`Cc1cc(F)ccc1-c1ccc(S(=O)(=O)N2c3ccccc3CC2C(=O)NCCOc2cc(F)c(C(=O)O)c(F)c2)cc1` (configuration not stated) came in with a melting point of 97 to 111 °C.

In turn, `N#CC(=C(Nc1ccc2c(c1)OCO2)NC1CCC1)S(=O)(=O)c1ccc(Cl)cc1` gave a melting point of 190 °C.

`COC(=O)C(C#N)CC(=O)c1ccc(Cl)cc1` (configuration not stated): the melting point was 75 to 79 °C.

On to `CC(=O)NCc1ccc(/C=C/C(c2cc(Cl)cc(Cl)c2)C(F)(F)F)cc1` (configuration not stated), for which the melting point fell in the range of 107 to 109 °C.

Compound `CCOC(=O)c1ccc2c(c(C)nn2C)c1C#N` displayed a melting point of 170 to 176 °C.

Compound `O=c1ssc(N2CCc3ccccc3CC2)c1Cl` yielded a melting point of 141 °C.

With `NNP(=S)(NN)Oc1ccccc1`, the melting point lay in the range of 94 to 95 °C.

`CCOc1cc2c(cc1OCC)C(C(S)(C#N)CCC(=O)O)=NCC2` (configuration not stated) registered a melting point of 106 to 108 °C.

Regarding `COc1cc2ncnc(N3CCN(C(=S)Nc4ccc(C(F)(F)F)cc4)CC3)c2cc1OC`, the melting point was 117 to 119 °C.

Compound `CCOC(=O)CCCOc1ccc(S(=O)(=O)n2c(=O)[nH]c3cc(Cl)ccc3c2=O)cc1` gave a melting point of 167 to 169 °C.

The compound `CCOC(=O)C1=C(C)NC2(C)ON=C(C)C2C1c1ccccc1[N+](=O)[O-]` (configuration not stated) yielded a melting point of 212 °C.

With `CN(c1ccccc1)c1ncccc1NC(=O)c1ccccc1Br`, the melting point lay within 144 to 146 °C.

Compound `O=C(O)COc1ccc2c(=O)c3ccc(Cl)cc3oc2c1Cl` returned a melting point of 270 °C.

`N#Cc1ccccc1Sc1ccccc1[N+](=O)[O-]`: the melting point was 166 to 167 °C.

On to `O=C(O)CC(Cc1c[nH]c2ccccc12)(C(=O)O)C(=O)O`, for which the melting point lay in the range of 184 to 185 °C.

For `OC(Cn1ccnc1)c1cccnc1` (configuration not stated), the melting point was in the range of 119 to 121 °C.

With `CN1CCCC1=C(C#N)C(=O)c1ccc(Cl)cc1`, the melting point amounted to 115 °C.

With `Cc1c(NCC(C)(C)CNCC(O)COc2ccccc2)n(C)c(=O)n(C)c1=O` (configuration not stated), the melting point lay in the range of 111 to 112 °C.

With `COc1cc(Nc2nccc(C(C)(C)C)n2)cc(OC)c1OC`, the melting point turned out to be 122 °C.

Turning to `CNC(=O)Nc1snc(N2CCCC2)c1C#N`, the melting point came out at 239 °C.

As for `Cc1cc(Oc2ncc(Cl)cc2Cl)cc(C)c1N=C=NC(C)(C)C`, the melting point was 69 to 71 °C.

With `COC(=O)c1nn(-c2ccc(OCc3ccccc3)cc2F)cc(OC)c1=O`, the melting point is 143 to 144 °C.

In the case of `COc1cc(C(=O)O)cc2c1CC(C)O2` (configuration not stated), the melting point fell in the range of 180 to 182 °C.

In turn, `O=[N+]([O-])c1oc2ccc(CCO)cc2c1-c1ccc(CO)cc1` displayed a melting point of 135 to 137 °C.

The compound `CC(C)C[C@H](NC(=O)OCc1ccccc1)C(=O)N[C@@H](CCc1ccccc1)C(=O)CSCc1ccco1` yielded a melting point of 73 to 77 °C.

Consider `C=CCOc1cc(-n2c(=O)cc(C(F)(F)F)n(C)c2=O)c(F)cc1Br`, for which the melting point came out at 120 °C.

In turn, `Nc1nc(Nc2ccccc2)sc1C(=O)c1c(F)cccc1F` registered a melting point of 183 to 184 °C.

Turning to `CCOC(=O)/C=C/c1ccc(O)cc1Oc1ncc(C(F)(F)F)cc1Cl`, the melting point amounted to 124 °C.

For the compound `O=C(CCC(=O)N1CCCCC1c1ccccc1)c1ccc2c(c1)CCN(C(=O)C(F)(F)F)CC2` (configuration not stated), the melting point was 132 to 133 °C.

The compound `O=C(O)CCCC1Cc2ccccc2C1` came in with a melting point of 75 °C.

`N#Cc1ccc(C(=O)OCc2ccc[nH]c2=O)cc1`: the melting point lay within 200 to 203 °C.

As for `CCc1cc(CC)c(-c2c(O)c(C)nn(C)c2=O)c(CC)c1Br`, the melting point fell in the range of 225 to 226 °C.

As to `CC(C)NN=C(N)Nc1c(Cl)cccc1Cl`, the melting point lay within 227 to 228 °C.

Consider `CCCNC(=O)C1(CCCCc2ccc(NC(=O)c3ccccc3)cc2)c2ccccc2-c2ccccc21`, for which the melting point fell in the range of 171 to 173 °C.

As for `COc1ccc(CCCC(O)CCC(=O)O)cc1` (configuration not stated), the melting point is 67 to 68 °C.

`CC#CCOc1ccc(S(=O)(=O)N(C)C2(C(=O)O)CCCCC2)cc1` showed a melting point of 124 to 126 °C.

`C#Cc1cn(C2CC(OC(C)=O)C(COC(C)=O)O2)c(=O)[nH]c1=O` (configuration not stated): the melting point lay within 152 to 154 °C.

Compound `COc1cccc(OC)c1-c1ccc(C[C@H](NC(=O)c2c(Cl)cc(-c3ccn[nH]3)cc2Cl)C(=O)O)cc1` gave a melting point of 156 °C.

Take `CCOC(=O)CNC(=O)Nc1ccc(C#N)cc1`: the melting point lay within 140 to 144 °C.

In turn, `COc1cccc(-c2[nH]c3ccc(OCc4ccccc4)cc3c2C)c1` yielded a melting point of 107 to 109 °C.

Consider `Cc1ccc(C)n1-c1ccc(/C=C/C(=O)N(C)O)cc1`, for which the melting point fell in the range of 143 to 145 °C.

Consider `N#CCCNC(=O)c1cccc(-c2cccc3oc(Cc4cccc(C(F)(F)F)c4)nc23)c1`, for which the melting point fell in the range of 117 to 118 °C.

The compound `COC(=O)CCCCCCc1nc(C)sc1C(=O)O` showed a melting point of 106 to 107 °C.

`O=c1[nH]c2c(o1)-c1ccncc1CC2` came in with a melting point of 290 to 292 °C.

`CC(CN1CCOCC1)N1CCN(c2ccccc2)CC1` (configuration not stated) registered a melting point of 55 to 56 °C.

Take `O=C(O)c1cccc2c(=O)cc(-c3ccc(OCc4ccccc4)cc3)oc12`: the melting point was 145 to 147 °C.

Consider `OCc1nccc(N2CCCCC2)c1Cl`, for which the melting point was 68 to 70 °C.

For the compound `CC(C)(C)OC(=O)NC(C(=O)O)c1c[nH]c2ccccc12` (configuration not stated), the melting point is 144 °C.

`CC(C)(CNc1ccc(C2=NNC(=O)CC2)cc1)NCC(O)COc1ccccc1` (configuration not stated) came in with a melting point of 147 to 148 °C.

Compound `Cc1nnc(-c2ccc3occ(-c4ccc(F)cc4)c3c2)o1` yielded a melting point of 130 to 131 °C.

On to `CCOP(=S)(OCC)Oc1nsc(N(C)C)n1`, for which the melting point was 48 °C.

Compound `Cc1nc2c3c(c(C(=O)N(C)C)cc2n1C)CCC1(Cc2ccccc2C1)N3` yielded a melting point of 178 to 179 °C.

`CC(C)Cc1nn(C)c(=O)c2c(S(=O)CCCO)c(Cc3cccc4ccccc34)sc12` (configuration not stated) showed a melting point of 60 to 65 °C.

`OCc1n[nH]c(-c2ccc(CN3CCCCCC3)s2)n1` returned a melting point of 159 to 161 °C.

On to `Cc1ccc(C(=O)c2noc(CS(=O)c3ccccc3)n2)cc1` (configuration not stated), for which the melting point was in the range of 97 to 99 °C.

`NC(=O)NC1CCC(OC(=O)c2ccccc2)c2sccc21` (configuration not stated) yielded a melting point of 199 to 205 °C.

With `CC(=O)OC(C(=O)N1C(Cc2ccccc2)COC1(C)C)c1ccc(-c2ccc(-c3ccccc3)cc2)o1` (configuration not stated), the melting point is 120 to 128 °C.

On to `Cc1cc2c(cc1C1=NNC(=O)CC1C)N(C)C(=O)CO2` (configuration not stated), for which the melting point was in the range of 180 to 182 °C.

Turning to `CCNc1ncnc2nc(-c3ccncc3)[nH]c12`, the melting point was in the range of 308 to 310 °C.

Compound `CCCc1nc(C=O)c(C)[nH]1` showed a melting point of 126 to 129 °C.

With `CCc1ccc2c(c1)cc(C(=O)Nc1nc(-c3c(OC)cc(C)cc3OC)n(CCC3CCCCC3)n1)n2CC(=O)O`, the melting point was found to be 198 °C.

In turn, `NS(=O)(=O)c1cccc(-c2cn(-c3cc(C(F)(F)F)cc(-c4ccc(C(F)(F)F)cc4)n3)cn2)c1` showed a melting point of over 266 °C.

For the compound `COCc1ccn2nc(S(=O)(=O)Cl)nc2n1`, the melting point was 125 °C.

As to `CC1(CN(c2ccc(Cl)cc2)S(C)(=O)=O)OCCO1`, the melting point lay within 84 to 85 °C.

`CCOC(=O)/C(=N\O[C@H]1CC[C@H](C)CC1)c1csc(N)n1`: the melting point is 133 to 135 °C.

For the compound `CCOC(=O)CC(=O)NC(=O)N1CC1C#N` (configuration not stated), the melting point is 121 to 123 °C.

The compound `O=S(=O)(Nc1ccc(OCc2ccc3ccccc3n2)cc1)c1ccc(Cl)cc1` yielded a melting point of 125 °C.

On to `CCCCCCCCCCCCCCCCCC[N+](=O)[O-]`, for which the melting point was in the range of 47 to 50 °C.

Take `COc1ccc(-c2nnc3c4ccccc4c(Nc4ccc(C#N)cc4)nn23)cc1`: the melting point amounted to 314 °C.

In turn, `Clc1ccc(COCCOc2ccc(-c3ccccc3)cc2)cc1` had a melting point of 85 to 87 °C.

For the compound `O=C1Nc2ccc(Br)cc2C(c2ccccc2)=NC1OC(=O)C(F)(F)F` (configuration not stated), the melting point was in the range of 181 to 183 °C.

The compound `CCON=C(CC)C1=C(O)CC(c2ccc(NC=O)cc2)CC1=O` (configuration not stated) yielded a melting point of 111 to 114 °C.

Compound `CC(C)(CCl)C(=O)N(O)Cc1ccccc1Br` yielded a melting point of 119 to 121 °C.

As to `O=C(O)c1cccc2c1CCc1cc(C(F)(F)F)ccc1S2`, the melting point lay within 178 to 180 °C.

The compound `CNC(=S)N(O)C(C)c1cc(C(C)(C)C)c(O)c(C(C)(C)C)c1` (configuration not stated) gave a melting point of 175 to 176 °C.

For `O=c1c2c(CC3CCOCC3)n[nH]c2c2cccnc2n1-c1ccccc1`, the melting point fell in the range of 228 to 234 °C.

In turn, `COc1ccc(C2CSc3ccccc3NC2=O)cc1OC` (configuration not stated) returned a melting point of 174 °C.

Compound `COc1ccc(-c2nc(COc3ccc(CCCn4ccnc4)cc3)co2)s1` had a melting point of 96 to 97 °C.

Turning to `Nc1ncnc2c1c(-c1cc(O)cc(F)c1)nn2Cc1oc2ccccc2c(=O)c1-c1ccccc1`, the melting point lay within 260 to 262 °C.

Compound `CS(=O)(=O)Oc1cccc2c1CCCN2` registered a melting point of 74 to 76 °C.

In the case of `Cn1c(COc2ccc(C#N)cc2)nc2nc(CO)ccc21`, the melting point stood at 172 °C.

As usually defined, the melting point is the temperature, or range, at which the solid turns liquid.
